In brackets after ≈: the same amount, converted by molar mass. Like-named read-outs stand apart in the source and are kept apart here. Non-standard residues stand in square brackets, D forms with d. Residues, ends and D or L forms follow the SMILES beside them. No end group written: not given here.
Key:
MRSA (NCTC 12493) = assay type: cell-based, methicillin-resistant Staphylococcus aureus; settings: NCTC 12493, 24 h
Procedure: (§1) The antimicrobial activities of peptides were evaluated against the Gram-positive bacteria, S. aureus (ATCC 6538), methicillin-resistant Staphylococcus aureus (MRSA) (NCTC 12493), Enterococcus faecalis (E. faecalis) (NCTC 12697); the Gram-negative bacteria, E. coli (ATCC CRM 8739), Klebsiella pneumoniae (K. pneumoniae) (ATCC 43816), Pseudomonas aeruginosa (P. aeruginosa) (ATCC CRM 9027); and the yeast, Candida albicans (C. albicans) (ATCC CRM 10231). Clinical isolates of MRSA (B042 V2E1 A), E. coli (ATCC BAA-2340), K. pneumoniae (ATCC BAA-1705), and P. aeruginosa (B004 V2S2 B) were also used to determine their antimicrobial activities. The suspension of microorganisms in the logarithmic growth phase with a specific final density (Gram-negative and Gram-positive bacteria: 5 × 10^5 CFU/mL; yeast: 1 × 10^6 CFU/mL) was incubated with different peptide concentrations from 1 µM to 512 µM at 37 °C for 24 h. PBS was used as the negative control, and norfloxacin and amphotericin B were selected as the positive control for bacteria and yeast, respectively. Since the Norfloxacin had weak activities against P. aeruginosa (B004 V2S2 B) and K. pneumoniae (ATCC BAA 1705), gentamicin was used as the positive control for these two bacterial strains. The absorbance of each well was obtained using a microplate reader (EL808, Biolise BioTek, Winooski, VT, USA) set at 550 nm wavelength. The MIC value was the lowest concentration of a peptide that inhibits visible bacterial growth. Once the MIC values were determined, an aliquot from the bacterial culture exposed to the peptide at or above its MIC value was inoculated on a Mueller Hinton agar (MHA) and was incubated at 37 for 18 h. The MBC value was the lowest concentration of a peptide that kills 99.9% of bacteria.
According to the procedures in a previous article, the analysis of the sensitivity of the peptides was determined by measuring MIC values in the presence of different types of salts and 10% fetal bovine serum. MRSA (NCTC 12493) and K. pneumoniae (ATCC 43816) were selected as the subjects of these assays. Various salts at different concentrations, including 150 mM NaCl, 4.5 mM KCl, 6 μM NH4Cl, 1 mM MgCl2, […], […], and 10% serum (Gibco, Auckland, New Zealand), were added to the MHB medium for the examination of the MIC values which were determined as described in Section 2.7.

NCI-H157 cells = assay type: cell-based; settings: 24 h
Procedure: (§2) The cytotoxicity of the peptides against the human epidermal keratinocyte line, HaCaT, was tested using the MTT cell viability assay as described in a previous study. The 100 µL of the cell suspension in a complete DMEM medium with a density of 10,000 cells/mL was seeded in a 96-well plate and incubated overnight at 37 °C in a humidified 5% CO2 atmosphere. After 4 h of starvation in a serum-free medium, 100 μL of serial dilutions (from 10^−9 M to 10^−4 M) of temporin-PKE and its analogues was added to each well, and the plate was incubated for 24 h. The serum-free medium and 0.1% Triton X-100 were used as the negative and positive control, respectively. Then, MTT solution, at a volume of 10 μL, was added to each well, and the plate was incubated for 2 h. After this, the medium was replaced by 100 μL of DMSO, and plates were put in the shaking incubator for 15 min. The absorbance of each well was measured using a microplate reader (EL808, Biolise BioTek, Winooski, VT, USA) set to a wavelength of 570 nm. The equation used to calculate the viability of the cells is shown below: Cell viability (%)=A−Ab/An−Ab×100% where A represents the absorbance of each treatment group, Ab represents the average absorbance of the wells in the blank control group (cells not exposed to the test peptide and MTT), and An represents the average absorbance of the wells in the negative control group (cells not exposed to the test peptide).
(§3) The anti-proliferative activities of peptides against HCT-116, NCI-H838 (H838), U251MG, PC-3, and NCI-H157 cell lines were determined by MTT cell viability assay, and the details were described in Section 2.9.

U251MG cells = assay type: cell-based; settings: 24 h
Procedure: as §2, §3

NCI-H838 (H838) cells = assay type: cell-based; settings: 24 h
Procedure: as §2, §3

PC-3 cells = assay type: cell-based; settings: 24 h
Procedure: as §2, §3

HCT-116 cells = assay type: cell-based; settings: 24 h
Procedure: as §2, §3

[1] = tested on: K. pneumoniae (ATCC BAA-1705); assay: microbe, parasite or virus in culture; assay type: cell-based, Klebsiella pneumoniae; settings: for MBC: ATCC BAA-1705, 18 h; for MIC: ATCC BAA-1705, 24 h
Procedure: as §1

[2] = tested on: K. pneumoniae (ATCC 43816); assay: microbe, parasite or virus in culture; assay type: cell-based, Klebsiella pneumoniae; settings: for MBC: ATCC 43816, 18 h; for MIC: ATCC 43816, 24 h
Procedure: as §1

horse red blood cells = assay type: cell-based
Procedure: As a previous study described in detail, the haemolysis activity assays of peptides were conducted on defibrinated horse blood (TCS Biosciences Ltd., Buckingham, UK) with an erythrocyte suspension concentration of 2% (v/v). The 120 μL of peptide solution in a gradient concentration ranging from 1µM to 512 µM was mixed with the same volume of 2% horse red blood cell suspension, and the complex was incubated at 37 °C for 2 h. PBS and 0.1% Triton X-100 were chosen as the negative and positive control, respectively. After centrifugation at 900× g for 5 min, the absorbance of the supernatant was analysed using a microplate reader (EL808, Biolise BioTek, Winooski, VT, USA) set to a wavelength of 570 nm. The equation to calculate the haemolysis of the peptides is shown below: Haemolysis (%)=A−An/Ap−An×100% where A represents the absorbance of each treatment group, An represents the average absorbance of the negative control group, and Ap represents the average absorbance of the positive control group.

| Molecule | MIC against MRSA in the presence of 4 µM FeCl3 (MRSA (NCTC 12493)) | MIC against MRSA in the presence of 6 µM NH4Cl (MRSA (NCTC 12493)) | MIC against MRSA in the presence of 8 µM ZnCl2 (MRSA (NCTC 12493)) | MIC against MRSA in the presence of 1 mM MgCl2 (MRSA (NCTC 12493)) | MIC against MRSA in the presence of 2 mM CaCl2 (MRSA (NCTC 12493)) | MIC against MRSA in the presence of 4.5 mM KCl (MRSA (NCTC 12493)) | MIC against MRSA in the presence of 150 mM NaCl (MRSA (NCTC 12493)) | MIC against MRSA in the presence of 10% FBS (MRSA (NCTC 12493)) | MIC against MRSA, Negative (MRSA (NCTC 12493)) | IC50 (NCI-H157 cells) | IC50 (U251MG cells) | IC50 (NCI-H838 (H838) cells) | IC50 (PC-3 cells) | IC50 (HCT-116 cells) | MBC ([2]; read-out: MBC) | MIC ([2]; read-out: MIC) | HC50 (horse red blood cells; red cells of horse, 2 h) | MBC [1] | MIC [1] | HC50 (horse red blood cells) | also measured |
| --- | --- | --- | --- | --- | --- | --- | --- | --- | --- | --- | --- | --- | --- | --- | --- | --- | --- | --- | --- | --- | --- |
| CC[C@@H](C)[C@@H](NC(=O)[C@H](CCCCN)NC(=O)[C@@H]1CCCN1C(=O)[C@H](CC(C)C)NC(=O)[C@H](CC(C)C)NC(=O)[C@H](CO)NC(=O)[C@H](CO)NC(=O)[C@H](CC(C)C)NC(=O)[C@H](C)NC(=O)CNC(=O)[C@H](NC(=O)[C@H](NC(=O)[C@H](CC(C)C)NC(=O)[C@@H]1CCCN1C(=O)[C@H](CC(C)C)NC(=O)[C@@H](N)Cc1ccccc1)[C@H](C)CC)[C@H](C)CC)C(=O)N[C@@H](Cc1ccccc1)C(N)=O [Temporin-PKE-3i] (H-FLPL[dI][dI]GALSSLLPK[dI]F-NH2) | 128 µM | 256 µM | 512 µM | 256 µM | 256 µM | 512 µM | 512 µM | 512 µM | 64 µM (≈ 118 µg/mL) | 71.2 µM | 121 µM | 193 µM | 167 µM | 72.1 µM | >512 µM | >512 µM | 64.0 µM |  |  |  | MBC ([1]; read-out: MBC): >512 µM; MIC ([1]; read-out: MIC): >512 µM |
| FLPLIIGKLSSLLPKIF-NH2 [Temporin-PKE-2K] | 2 µM | 4 µM | 16 µM | 4 µM | 4 µM | 4 µM | 8 µM | 8 µM | 2 µM | 2.78 µM | 2.49 µM | 3.07 µM | 2.64 µM | 2.84 µM | 32 µM | 16 µM | 19.87 µM | 16 µM | 16 µM |  | HC50 relative to that of temporin-PKE (horse red blood cells): 3 fold |
| FLPKIIGKLSSLLPKIF-NH2 [Temporin-PKE-3K] | 2 µM | 4 µM | 16 µM | 4 µM | 4 µM | 4 µM | 8 µM | 4 µM | 2 µM | 3.29 µM | 2.83 µM | 0.51 µM | 3.01 µM | 0.38 µM |  | 4 µM | 87.47 µM | 8 µM | 8 µM | 87.47 µM | MBC [2]: 4/4 μM |
| FLPKIIGKLSSKLPKIF-NH2 [Temporin-PKE-4K] | 32 µM | 32 µM | 128 µM | 32 µM | 64 µM | 32 µM | 128 µM | 128 µM | 32 µM | 27.8 µM | 85.5 µM | 35.3 µM | 49.5 µM | 99.4 µM |  |  | 1671 µM | 32 µM | 32 µM | 1671 µM | MBC [2]: 16 µM; MIC [2]: 16 µM |
| FLPLIIGALSSKLPKIF-NH2 [Temporin-PKE-K12] | 8 µM | 8 µM | 32 µM | 16 µM | 16 µM | 32 µM | 32 µM | 32 µM | 4 µM | 24 µM | 25.8 µM | 22.7 µM | 27.3 µM | 22.1 µM | 64 µM | 32 µM | 122.7 µM | 64 µM | 64 µM | 122.7 µM |  |
